US10294202B2, “Pyrrolidinones as herbicides” (FMC Corporation, priority 2013, dated 2019)

Experiments:
sandbur = assay: Test E preemergence herbicide test; format: in vivo, Cenchrus echinatus; set-up: key: 0 = no effect, 100 = complete control
Source text: (§1) Seeds of plant species selected from corn (Zea mays), soybean (Glycine max), velvetleaf (Abutilon theophrasti), lambsquarters (Chenopodium album), wild poinsettia (Euphorbia heterophylla), pigweed, palmer (palmer pigweed, Amaranthus palmeri), waterhemp (common waterhemp, Amaranthus rudis), surinam grass (Brachiaria decumbens), crabgrass, large (large crabgrass, Digitaria sanguinalis), crabgrass, Brazil (Brazilian crabgrass, Digitaria horizontalis), panicum, fall (fall panicum, Panicum dichotomiflorum), foxtail, giant (giant foxtail, Setaria faberii), foxtail, green (green foxtail, Setaria viridis), goosegrass (Eleusine indica), johnsongrass (Sorghum halepense), ragweed (common ragweed, Ambrosia elatior), barnyardgrass (Echinochloa crus-galli), sandbur (southern sandbur, Cenchrus echinatus), arrowleaf […] rhombifolia), ryegrass, Italian (Italian ryegrass, Lolium multiflorum), dayflower, VA (Virginia dayflower, Commelina virginica), field bindweed (Convolvulus arvensis), morningglory (Ipomoea coccinea), nightshade (eastern black nightshade, Solanum ptycanthum), kochia (Kochia scoparia), nutsedge, yellow (yellow nutsedge, Cyperus esculentus), cocklebur (common cocklebur, Xanthium strumarium), smartweed (ladysthumb smartweed, Polygonum Persicaria) and beggarticks (hairy beggarticks, Bidens pilosa), were planted into a silt loam soil and treated preemergence with test chemicals formulated in a non-phytotoxic solvent mixture which included a surfactant. Treated plants and controls were maintained in a greenhouse for 21 days, after which time all species were compared to controls and visually evaluated. Plant response ratings, summarized in Table E, are based on a scale of 0 to 100 where 0 is no effect and 100 is complete control. A dash (-) response means no test result.

nightshade = assay: Test C pre-/postemergence herbicide test; format: in vivo, Solanum ptycanthum; conditions: Preemergence
Source text: Seeds of plant species selected from blackgrass (Alopecurus myosuroides), ryegrass, Italian (Italian ryegrass, Lolium multiflorum), wheat (winter wheat, Triticum aestivum), galium (catchweed bedstraw, Galium aparine), corn (Zea mays), crabgrass, large (large crabgrass, Digitaria sanguinalis), foxtail, giant (giant foxtail, Setaria faberii), johnsongrass (Sorghum halepense), lambsquarters (Chenopodium album), morningglory (Ipomoea coccinea), nutsedge, yellow (yellow nutsedge, Cyperus esculentus), pigweed (Amaranthus retroflexus), ragweed (common ragweed, Ambrosia elatior), soybean (Glycine max), barnyardgrass (Echinochloa crus-galli), oilseed rape (Brassica napus), waterhemp (common waterhemp, Amaranthus rudis), kochia (Kochia scoparia), oat, wild (wild oat, Avena fatua), surinam grass (Brachiaria decumbens), foxtail, green (green foxtail, Setaria viridis), goosegrass (Eleusine indica), bromegrass, downy (downy bromegrass, Bromus tectorum), nightshade (eastern black nightshade, Solanum ptycanthum), cocklebur (common cocklebur, Xanthium strumarium), cupgrass, woolly (woolly cupgrass, Eriochloa villosa), bermudagrass (Cynodon dactylon), sunflower, (common oilseed sunflower, Helianthus annuus), Russian thistle (Salsola kali) and velvetleaf (Abutilon theophrasti) were planted into a blend of loam soil and sand and treated preemergence with test chemicals formulated in a non-phytotoxic solvent mixture which included a surfactant. At the same time, plants selected from these crop and weed species and also barley (winter barley, Hordeum vulgare), […]), chickweed (common chickweed, Stellaria media), deadnettle (henbit deadnettle, Lamium amplexicaule), and canarygrass (littleseed canarygrass, Phalaris minor) were planted in pots containing Redi-Earth® planting medium (Scotts Company, 14111 Scottslawn Road, Marysville, Ohio 43041) comprising spaghnum peat moss, vermiculite, wetting agent and starter nutrients and treated with postemergence applications of test chemicals formulated in the same manner. Plants ranged in height from 2 to 18 cm (1- to 4-leaf stage) for postemergence treatments. Treated plants and controls were maintained in a greenhouse for 13 to 15 days, after which time all species were compared to controls and visually evaluated. Plant response ratings, summarized in Table C, are based on a scale of 0 to 100 where 0 is no effect and 100 is complete control. A dash (-) response means no test result.

surinam grass = assay: Test E preemergence herbicide test; format: in vivo, Brachiaria decumbens; set-up: key: 0 = no effect, 100 = complete control
Source text: as §1

barnyardgrass = assay: Test F flood (paddy) test; format: in vivo, Echinochloa crus-galli; conditions: 21 d, scale 0-100
Method in brief: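 Compounds were applied directly to paddy water held 3 cm above silt loam soil, with rice and weeds at the 2.0–2.5-leaf stage, grown in a greenhouse at 30/27° C under a 16-h photoperiod. Visual ratings (0 no effect to 100 complete control) were made against untreated controls after 21 d.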

[1] = 125 g ai/ha, scale 0 to 100 (0 no effect, 100 complete control)

SMILES | Plant response rating, Sandbur (sandbur; 16 g ai/ha) | Plant response rating, Sandbur (sandbur; 31 g ai/ha) | Plant response rating, Sandbur (sandbur; 62 g ai/ha) | Plant response rating, Sandbur (sandbur; 125 g ai/ha) | Plant response rating, Sandbur (sandbur; 250 g ai/ha) | Plant response rating, Nightshade (nightshade; 62 g ai/ha, scale 0 to 100) | Plant response rating, Surinam Grass (surinam grass; 16 g ai/ha) | Plant response rating, Surinam Grass (surinam grass; 31 g ai/ha) | Plant response rating, Surinam Grass (surinam grass; 62 g ai/ha) | Plant response rating, Surinam Grass (surinam grass; 125 g ai/ha) | Plant response rating, Surinam Grass (surinam grass; 250 g ai/ha) | Plant response rating, Barnyardgrass (barnyardgrass; 64 g ai/ha) | Plant response rating, Barnyardgrass (barnyardgrass; 125 g ai/ha) | Plant response rating, Barnyardgrass (barnyardgrass; 250 g ai/ha) | Plant response rating, Barnyardgrass (barnyardgrass; 500 g ai/ha) | Plant response rating, Nightshade (nightshade; [1]) | Plant response rating, Barnyardgrass (barnyardgrass; 1000 g ai/ha) | Plant response rating, Barnyardgrass (barnyardgrass; 2000 g ai/ha)
O=C1NCC(c2ccc(Cl)c(Cl)c2)C1C(=O)Nc1ccccc1F (racemic) [Compound 14] | 0 | 0 | 0 | 0 | 30 | 0 | 0 | 0 | 0 | 20 | 60 | – | – | – | – | – | – | –
O=C1NCC(c2ccc(F)c(F)c2)C1C(=O)Nc1cccc(F)c1F (racemic) [Compound 101] | – | – | – | – | – | – | – | – | – | – | – | 60 | 85 | 85 | 90 | – | – | –
O=C1NCC(c2ccc(C(F)(F)F)cc2)C1C(=O)Nc1cccc(F)c1F (racemic) [Compound 202] | – | 35 | 70 | 85 | 80 | – | – | 20 | – | 65 | 95 | – | – | – | – | – | – | –
O=C1NCC(c2cccc(C(F)F)c2)C1C(=O)Nc1ccccc1F (racemic) [Compound 210] | – | – | – | – | – | – | – | – | – | – | – | – | 75 | 100 | 100 | – | – | –
O=C1NCC(c2ccc(OC(F)F)cc2)C1C(=O)Nc1cccc(F)c1F (racemic) [Compound 350] | – | 15 | 35 | 65 | 85 | – | – | 0 | 0 | 50 | 65 | – | – | – | – | – | – | –
O=C1NCCC1C(=O)N(c1ccc(F)c(F)c1)c1ccccc1F (stereo not drawn) [Compound 5, N-(3,4-difluorophenyl)-N-(2-fluorophenyl)-2-oxo-3-pyrrolidinecarboxamide] | – | – | – | – | – | 45 | – | – | – | – | – | – | 55 | 65 | 75 | 45 | 90 | 90
O=C1NCC(c2ccc(F)c(F)c2)C1C(=O)Nc1cccc(F)c1F (stereo not drawn) [Compound 17, N-(2,3-difluorophenyl)-4-(3,4-difluorophenyl)-2-oxo-3-pyrrolidinecarboxamide] | 0 | 0 | 50 | 65 | 95 | 20 | 0 | 0 | 50 | 70 | 75 | – | 90 | 90 | 90 | 40 | 95 | 100
